Reference: patent US9376499B2, “PAR-1 activation by metalloproteinase-1 (MMP-1)” (Tufts Medical Center, Inc., priority 2009, dated 2016)
Non-standard residues stand in square brackets, D forms with d. Residues, ends and D or L forms follow the SMILES beside them. No end group written: not given here. *: point of attachment. 4Abz = Nc1ccc(C(=O)O)cc1; NHOH = ON*

Columns and labels:
[1] = Angiogenesis in adventitia of abdominal aorta of ApoE-/- mice (CD31 whole mount immunostaining); assay type: in vivo, mouse; conditions: 15 weeks
Procedure: Angiogenesis may promote the progression of atherosclerosis and contribute to plaque instability and rupture. […] Angiogenesis was therefore evaluated in the adventitia of aortas from apoE−/− mice fed a high fat diet for 15 weeks and treated with either the MMP-1 collagenase inhibitor, MMP Inh-1 (FN-439) or the PAR1 antagonist, P1pal-7. The mice were then anesthetized with Ketamine/Xylazine and pressure fixed with 10% formalin. The abdominal aorta was isolated, removed and fixed for 1 hour with 10% formalin and adventitial fat was removed. The abdominal aorta were then whole mount immunostained for CD31, a marker for endothelial cells and 3D projection images were constructed from multiple confocal sections using the following procedure. Briefly, the tissue was blocked for 1 hour with 5% goat serum in Tris buffered saline containing 0.3% Triton-X 100 (TBST) and incubated overnight at 4° C. with primary antibody diluted 1:1000 in TBST. After several washes with TBST, the tissue was incubated with fluorescently tagged secondary antibody diluted in TBST for 4 hours. The tissue was washed and post-fixed with 4% paraformaldehyde for 10 minutes. The aorta was then cut lengthwise and splayed open onto a microscope slide with the adventitial side up. The tissue was whole mounted with Vectashield mounting media and imaged using a Leica TCS SP2 confocal microscope […]. Confocal images were constructed into 3D projections of Z-stacks. Quantification of images was performed using NIH ImageJ. Antibodies used were: hamster anti-mouse PECAM-1 (Chemicon) and Cy3-anti-hamster (Jackson Immunolabs).

[2] = system: MAPKAP-K2; experiment: Collagen activation of phospho-MAPKAP-K2 in platelets (data not shown); assay type: cell-based, human
[3] = Collagen-induced systemic platelet activation (thrombocytopenia) in guinea pigs; assay type: in vivo, guinea pig; conditions: i.v. P1pal-7 3 mg/kg or FN-439 10 mg/kg, 10 min before 200 μg collagen
Procedure: Animal experiments were performed in accordance with the National Institutes of Health guidelines and approved by the Tufts Medical Center Institutional Animal Care and Use Committee. 2-4 week old Hartley guinea pigs (170-260 g) were anesthetized by an i.p. injection of xylazine (10 mg/kg) plus ketamine (50 mg/kg) and then catheterized via the left jugular vein and injected (200 μL) with either vehicle (20% DMSO/80% water), P1pal-7 or FN-439. For determination of collagen-dependent systemic platelet activation, 10 min after administration of inhibitors, 200 μg collagen in 200 μL of PBS was delivered via the jugular vein. Ten min after collagen injection, blood was collected into sodium citrate (1% v/v final) from the contralateral jugular vein and platelet counts were measured with a Hemavet850. The enzymatic activity of active MMP-1 in supernatants and platelet lysates was determined using DQ collagen I as fluorogenic substrate in the presence or absence of 3 μM FN-439, or 20 μg/ml of control IgG or a MMP-1 blocking Ab (preincubated for 2 h at 37° C.), as indicated.
Intravascular platelet activation was then induced by an intravenous injection of collagen into the guinea pigs. Vehicle, P1pal-7 (3 mg/kg) or FN-439 (10 mg/kg) were delivered i.v. to the internal jugular vein of guinea pigs (n=6) and allowed to circulate for 10 min. […]

[4] = Carotid artery FeCl3 injury arterial thrombosis model; assay type: in vivo, guinea pig; conditions: for prolongation of the mean occlusion time: P1pal-7 alone 0.3 mg/kg, FN-439 alone 2.0 mg/kg i.v.
From the text: To assess the efficacy on arterial thrombosis by blockade of thrombin, MMP-1, or PAR1, a standard carotid artery FeCl3 injury model was used in guinea pigs. FeCl3 causes denudation of the artery and exposure of type I collagen and other subendothelial matrix proteins. The effects of blocking thrombin with bivalirudin, MMP-1 with FN-439, and PAR1 with either the small molecule antagonist RWJ-56110 or the P1pal-7 pepducin on arterial thrombosis were then compared using a dopier probe.
For these arterial thrombosis experiments, 10 min after i.v. administration of vehicle (−), bivalirudin, RWJ-56110, P1 pal-7 or FN-439 (n=4-5) through the jugular vein at the indicated concentrations, the right carotid arteries were injured for 20 min using a 24 mm^2 piece of Bio-Rad Trans-Blot paper soaked in 20% FeCl3. Arterial flow 5 mm distal to the site of injury was measured with a 0.5 V Doppler probe (Transonic Systems). An arterial occlusion was defined as a flow rate of <0.01 V for ≧5 min. Doppler measurements were terminated at the 30 min time point following injury (* designates p<0.05).

[5] = system: platelets; experiment: Platelet thrombus formation on collagen surface under arterial flow, heparin-anticoagulated whole blood; assay type: cell-based, human; conditions: heparin 10 U/mL; shear rate 1,000 s-1; FN-439 3 μM, RWJ-56110 1 μM, pepducins 3 μM, aspirin 1 mM
Procedure: Following incubation with inhibitors, the blood was perfused over a glass slide coated with fibrillar collagen type I.
A flow chamber (Glycotech) with Type-I fibrillar collagen-coated glass slides was mounted on the stage of an IMT-2 inverted microscope (Olympus) equipped with Retiga 1300 digital camera (QImaging) and 40× objective. One of the flow chamber inlets was connected to a syringe pump (Harvard Apparatus) calibrated to create a shear rate of 1,000^s-1. The whole blood pretreated with the various pharmacologic inhibitors was then perfused over the collagen-coated glass slide. After 2-15 min of perfusion, blood was removed from the flow chamber by gentle displacement with PIPES buffer and images of 8-10 fields were acquired using OpenLab software (Improvision). Acquired images were further analyzed using NIH Image 1.63 software. Images were first sharpened and the edges of separate platelets and platelet aggregates were determined. Following the adjustment of threshold, images were converted into the binary format, and the particle analysis function was activated to highlight the regions covered by platelets with the sensitivity set to one single adherent thrombocyte. For the conversion of pixels into square micrometers, a calibration curve was built using 2.5, 6, 20, 25, and 45 μm polystyrene beads (Polyscience) using acquisition conditions identical to the experimental. The mean area of formed thrombus was determined at 7 min. Area measurements in FIG. 6B represent the mean±s.e. of three separate experiments from five different blood donors.

Compound | amount of CD31-positive vessels [1] | number of branch points per vessel area [1] | number of vascular bundles in the adventitia of the aorta [1] | block of collagen-activation of phospho-MAPKAP-K2 [2] | protection against collagen-induced thrombocytopenia / intravascular platelet activation [3] | additional prolongation of arterial occlusion time in combination ([4]; 0.13 mg/kg P1pal-7 supplemented with 0.18 mg/kg bivalirudin) | prolongation of the mean occlusion time [4] | attenuation of growth rate and size of platelet aggregate strings [5]
P1pal-7: PAR1 i3 loop pepducin lipopeptide, KKSRALF (SEQ ID NO. 2), palmitate (also: palmitate, site not given here) | significantly reduced | significantly inhibited | significantly reduced | blocked | almost completely protected | no additional prolongation | 80% | ~75%
CC(C)C[C@@H](NC(=O)[C@@H]1CCCN1C(=O)CNC(=O)c1ccc(N)cc1)C(=O)N[C@H](C)C(=O)NO [FN-439] (H-[4Abz]GP[dL][dA]-{NHOH}) | significantly reduced | significantly inhibited | significantly reduced | blocked | significant protection | – | 90% | ~75%
